Test results from the Kinase Knowledgebase extract (Sharma et al. 2016).

How the values were obtained:
MAPK14 = MAPK14 (UniProt Q16539); assay: Inhibition of MAPK14 Kinase Activity
CDK2 = CDK2 (UniProt P24941); assay: Enzyme Assay

MAPK14, sequence (Q16539 whole entry, looked up): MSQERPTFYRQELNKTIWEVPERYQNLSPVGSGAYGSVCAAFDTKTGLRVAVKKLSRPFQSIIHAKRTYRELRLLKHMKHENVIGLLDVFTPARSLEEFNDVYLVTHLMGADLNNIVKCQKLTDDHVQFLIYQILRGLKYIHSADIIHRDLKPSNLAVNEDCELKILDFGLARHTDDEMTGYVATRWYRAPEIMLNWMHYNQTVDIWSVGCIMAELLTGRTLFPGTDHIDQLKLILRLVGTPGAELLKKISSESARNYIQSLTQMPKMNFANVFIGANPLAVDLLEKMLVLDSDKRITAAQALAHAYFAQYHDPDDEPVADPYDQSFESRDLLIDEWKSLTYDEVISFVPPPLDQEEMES

Compound | IC50 (MAPK14) | IC50 (CDK2)
CCc1cnc2c(c1)C(=Cc1cc(Br)c(O)c(Br)c1)C(=O)N2 | < 1000 nM | < 1000 nM
NS(=O)(=O)c1ccc(-c2ccc(C=C3C(=O)Nc4ncc(-c5ccsc5)cc43)o2)cc1 |  | < 1000 nM
COc1ccccc1-c1cc(C=C2C(=O)Nc3ncc(Br)cc32)cc(Br)c1O | < 1000 nM | 
O=C1Nc2ncc(Br)cc2C1=Cc1cc([N+](=O)[O-])c(O)c([N+](=O)[O-])c1 |  | < 1000 nM
NC(=O)c1cncc(-c2cnc3c(c2)C(=Cc2cc(Br)c(O)c(Br)c2)C(=O)N3)c1 | 1000 to 10000 nM | 

Now from value to compound:

IC50 (MAPK14) | IC50 (CDK2) | Compound
< 1000 nM | < 1000 nM | O=C1Nc2ncc(Br)cc2C1=Cc1cc(Br)c(O)c(Br)c1
< 1000 nM |  | O=C1Nc2nc(Cl)ccc2C1=Cc1cc(Br)c(O)c(Br)c1
 | < 1000 nM | C=Cc1cnc2c(c1)C(=Cc1cc(Br)c(O)c(Br)c1)C(=O)N2
